These results are taken from ChEMBL document CHEMBL5291721, “A preclinical secondary pharmacology resource illuminates target-adverse drug reaction associations of marketed drugs” (Nat Commun, 2023).

Where only a bound is given, the exact number is not on record here.

The target of assay [1] is Vascular endothelial growth factor receptor 2 (Homo sapiens, UniProt P35968). It is filed as functional.
Assay [2] deals with Prostaglandin G/H synthase 1 (Homo sapiens, UniProt P23219). It is filed as functional.
The target of assay [3] is T1, Alpha-1A adrenergic receptor (Homo sapiens, UniProt P35348).
T1 sequence (P35348 whole entry): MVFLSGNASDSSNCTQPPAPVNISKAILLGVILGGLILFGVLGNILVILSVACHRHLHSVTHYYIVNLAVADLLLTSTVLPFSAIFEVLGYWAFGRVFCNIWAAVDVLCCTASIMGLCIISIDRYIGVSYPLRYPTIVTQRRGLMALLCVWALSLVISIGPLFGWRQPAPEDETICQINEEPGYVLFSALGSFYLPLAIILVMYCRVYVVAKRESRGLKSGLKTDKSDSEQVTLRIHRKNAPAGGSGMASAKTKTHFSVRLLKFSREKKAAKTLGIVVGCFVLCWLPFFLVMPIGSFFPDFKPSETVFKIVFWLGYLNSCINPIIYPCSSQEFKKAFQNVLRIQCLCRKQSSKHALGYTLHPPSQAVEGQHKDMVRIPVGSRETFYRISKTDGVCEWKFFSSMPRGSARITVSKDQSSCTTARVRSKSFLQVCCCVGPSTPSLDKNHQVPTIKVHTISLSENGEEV

For a further assay, the target named is Histamine H2 receptor (Homo sapiens, UniProt P25021). It is filed as functional, cell-based.
Assay [4] deals with 3',5'-cyclic-AMP phosphodiesterase 4D (Homo sapiens, UniProt Q08499). It is filed as functional.
In a further assay the target is T2, Androgen receptor (Rattus norvegicus, UniProt P15207).
T2 sequence (P15207 whole entry): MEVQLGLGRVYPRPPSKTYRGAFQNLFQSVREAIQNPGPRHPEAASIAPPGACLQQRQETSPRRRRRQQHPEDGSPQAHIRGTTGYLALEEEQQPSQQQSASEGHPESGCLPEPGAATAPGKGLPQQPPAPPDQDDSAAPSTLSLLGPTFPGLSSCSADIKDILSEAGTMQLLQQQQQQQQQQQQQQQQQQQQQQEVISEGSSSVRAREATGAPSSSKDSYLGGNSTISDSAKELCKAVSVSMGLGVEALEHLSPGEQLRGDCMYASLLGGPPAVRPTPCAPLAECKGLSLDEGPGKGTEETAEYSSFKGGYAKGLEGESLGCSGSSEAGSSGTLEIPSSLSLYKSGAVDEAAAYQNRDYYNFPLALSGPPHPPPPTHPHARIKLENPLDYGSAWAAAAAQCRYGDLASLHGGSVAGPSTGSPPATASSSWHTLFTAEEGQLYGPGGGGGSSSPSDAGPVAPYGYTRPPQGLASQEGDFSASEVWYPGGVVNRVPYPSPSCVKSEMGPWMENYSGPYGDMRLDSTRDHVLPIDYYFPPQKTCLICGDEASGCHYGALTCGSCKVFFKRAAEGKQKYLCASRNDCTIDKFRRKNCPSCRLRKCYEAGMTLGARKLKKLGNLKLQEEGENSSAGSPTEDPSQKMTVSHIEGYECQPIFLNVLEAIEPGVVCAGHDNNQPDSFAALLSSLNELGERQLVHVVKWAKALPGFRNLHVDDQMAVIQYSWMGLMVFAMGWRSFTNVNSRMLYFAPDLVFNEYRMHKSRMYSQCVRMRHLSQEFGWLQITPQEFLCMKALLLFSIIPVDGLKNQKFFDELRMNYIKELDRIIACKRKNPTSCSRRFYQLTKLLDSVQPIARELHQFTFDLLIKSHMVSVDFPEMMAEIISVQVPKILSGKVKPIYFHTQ
It is filed as functional.

Assay [5] has as its target Kappa-type opioid receptor (Homo sapiens, UniProt P41145).
Assay [6] concerns the target Gamma-aminobutyric acid receptor subunit alpha-1 (Rattus norvegicus, UniProt P62813). It is filed as functional.
The target of assay [7] is Sodium-dependent noradrenaline transporter (Homo sapiens, UniProt P23975).
For assay [8], the target named is T3, Amine oxidase [flavin-containing] A (Homo sapiens, UniProt P21397).
T3 sequence (P21397 whole entry): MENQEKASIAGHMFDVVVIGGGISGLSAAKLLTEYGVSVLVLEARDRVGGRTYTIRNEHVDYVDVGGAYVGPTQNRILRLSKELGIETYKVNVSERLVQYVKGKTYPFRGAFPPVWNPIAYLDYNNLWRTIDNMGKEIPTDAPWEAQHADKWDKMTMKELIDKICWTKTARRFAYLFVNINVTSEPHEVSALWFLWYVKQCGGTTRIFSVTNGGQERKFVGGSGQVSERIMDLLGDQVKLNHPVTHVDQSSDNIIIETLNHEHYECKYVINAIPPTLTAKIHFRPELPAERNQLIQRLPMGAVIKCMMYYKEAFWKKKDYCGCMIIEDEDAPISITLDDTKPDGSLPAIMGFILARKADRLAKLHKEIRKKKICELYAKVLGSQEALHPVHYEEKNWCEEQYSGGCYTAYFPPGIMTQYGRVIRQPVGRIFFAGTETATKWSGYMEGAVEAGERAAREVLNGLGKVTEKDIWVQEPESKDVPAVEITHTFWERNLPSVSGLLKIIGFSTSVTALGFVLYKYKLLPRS
It is filed as functional.
Note: assay procedure not described here.

Chain of Sodium-dependent noradrenaline transporter (P23975 whole entry): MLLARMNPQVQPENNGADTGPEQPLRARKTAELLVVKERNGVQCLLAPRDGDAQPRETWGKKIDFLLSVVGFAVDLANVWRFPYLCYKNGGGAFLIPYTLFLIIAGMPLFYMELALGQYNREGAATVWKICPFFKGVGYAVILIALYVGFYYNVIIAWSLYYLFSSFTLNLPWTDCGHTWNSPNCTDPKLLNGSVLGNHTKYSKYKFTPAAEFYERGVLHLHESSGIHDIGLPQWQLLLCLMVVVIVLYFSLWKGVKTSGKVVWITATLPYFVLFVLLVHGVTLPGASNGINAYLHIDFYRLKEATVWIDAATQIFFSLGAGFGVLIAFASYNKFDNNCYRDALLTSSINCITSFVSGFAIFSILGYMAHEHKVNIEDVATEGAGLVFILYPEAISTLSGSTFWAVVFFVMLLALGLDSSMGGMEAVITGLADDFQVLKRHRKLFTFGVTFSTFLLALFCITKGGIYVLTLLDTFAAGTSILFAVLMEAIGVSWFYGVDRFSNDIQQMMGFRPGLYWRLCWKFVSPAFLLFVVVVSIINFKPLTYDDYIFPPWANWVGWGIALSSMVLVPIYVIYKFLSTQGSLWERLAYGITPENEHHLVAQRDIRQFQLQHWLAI
Chain of Histamine H2 receptor (P25021 whole entry): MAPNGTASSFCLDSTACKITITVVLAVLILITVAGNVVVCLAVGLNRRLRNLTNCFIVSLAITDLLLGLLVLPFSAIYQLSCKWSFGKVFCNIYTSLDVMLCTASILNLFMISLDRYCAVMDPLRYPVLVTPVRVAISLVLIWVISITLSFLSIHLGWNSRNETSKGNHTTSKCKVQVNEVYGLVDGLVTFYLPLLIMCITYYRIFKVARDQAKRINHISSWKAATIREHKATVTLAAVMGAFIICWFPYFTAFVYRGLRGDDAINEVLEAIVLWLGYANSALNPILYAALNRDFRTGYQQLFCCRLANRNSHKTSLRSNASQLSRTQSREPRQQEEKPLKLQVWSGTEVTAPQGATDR
Chain of Vascular endothelial growth factor receptor 2 (P35968 whole entry): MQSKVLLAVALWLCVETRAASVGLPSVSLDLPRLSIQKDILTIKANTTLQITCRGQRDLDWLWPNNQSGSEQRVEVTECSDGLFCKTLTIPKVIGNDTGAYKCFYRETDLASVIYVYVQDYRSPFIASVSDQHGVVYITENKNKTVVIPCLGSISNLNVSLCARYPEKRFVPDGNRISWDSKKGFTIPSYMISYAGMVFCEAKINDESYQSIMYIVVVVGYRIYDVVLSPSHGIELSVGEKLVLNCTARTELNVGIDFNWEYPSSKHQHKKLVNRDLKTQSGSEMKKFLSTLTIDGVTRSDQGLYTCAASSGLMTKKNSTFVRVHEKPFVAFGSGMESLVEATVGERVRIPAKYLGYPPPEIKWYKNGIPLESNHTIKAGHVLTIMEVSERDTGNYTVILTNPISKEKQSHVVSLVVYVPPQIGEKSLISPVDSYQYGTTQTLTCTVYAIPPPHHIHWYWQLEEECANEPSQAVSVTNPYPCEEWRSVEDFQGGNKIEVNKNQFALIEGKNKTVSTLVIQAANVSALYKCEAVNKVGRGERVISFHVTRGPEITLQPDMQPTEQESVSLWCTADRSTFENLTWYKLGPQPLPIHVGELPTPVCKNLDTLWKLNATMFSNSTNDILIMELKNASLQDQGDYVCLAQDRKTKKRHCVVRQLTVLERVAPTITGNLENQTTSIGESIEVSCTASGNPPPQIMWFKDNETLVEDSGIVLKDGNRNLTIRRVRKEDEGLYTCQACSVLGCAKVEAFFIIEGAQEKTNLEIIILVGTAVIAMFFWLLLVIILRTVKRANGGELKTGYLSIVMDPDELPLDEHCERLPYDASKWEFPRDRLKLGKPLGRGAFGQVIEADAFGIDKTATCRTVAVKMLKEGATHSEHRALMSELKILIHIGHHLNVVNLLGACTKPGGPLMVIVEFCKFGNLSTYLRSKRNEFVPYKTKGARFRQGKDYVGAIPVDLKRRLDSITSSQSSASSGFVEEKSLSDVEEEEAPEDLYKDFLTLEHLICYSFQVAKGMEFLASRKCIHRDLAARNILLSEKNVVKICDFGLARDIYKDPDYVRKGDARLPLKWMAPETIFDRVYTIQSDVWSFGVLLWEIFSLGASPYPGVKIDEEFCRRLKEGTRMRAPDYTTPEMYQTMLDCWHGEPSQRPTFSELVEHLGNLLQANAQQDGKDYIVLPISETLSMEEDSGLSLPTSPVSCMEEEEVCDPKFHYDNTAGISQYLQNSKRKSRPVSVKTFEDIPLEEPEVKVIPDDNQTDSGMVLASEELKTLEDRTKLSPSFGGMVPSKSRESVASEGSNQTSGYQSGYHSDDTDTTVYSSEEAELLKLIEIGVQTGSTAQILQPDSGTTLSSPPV
Chain of 3',5'-cyclic-AMP phosphodiesterase 4D (Q08499 whole entry): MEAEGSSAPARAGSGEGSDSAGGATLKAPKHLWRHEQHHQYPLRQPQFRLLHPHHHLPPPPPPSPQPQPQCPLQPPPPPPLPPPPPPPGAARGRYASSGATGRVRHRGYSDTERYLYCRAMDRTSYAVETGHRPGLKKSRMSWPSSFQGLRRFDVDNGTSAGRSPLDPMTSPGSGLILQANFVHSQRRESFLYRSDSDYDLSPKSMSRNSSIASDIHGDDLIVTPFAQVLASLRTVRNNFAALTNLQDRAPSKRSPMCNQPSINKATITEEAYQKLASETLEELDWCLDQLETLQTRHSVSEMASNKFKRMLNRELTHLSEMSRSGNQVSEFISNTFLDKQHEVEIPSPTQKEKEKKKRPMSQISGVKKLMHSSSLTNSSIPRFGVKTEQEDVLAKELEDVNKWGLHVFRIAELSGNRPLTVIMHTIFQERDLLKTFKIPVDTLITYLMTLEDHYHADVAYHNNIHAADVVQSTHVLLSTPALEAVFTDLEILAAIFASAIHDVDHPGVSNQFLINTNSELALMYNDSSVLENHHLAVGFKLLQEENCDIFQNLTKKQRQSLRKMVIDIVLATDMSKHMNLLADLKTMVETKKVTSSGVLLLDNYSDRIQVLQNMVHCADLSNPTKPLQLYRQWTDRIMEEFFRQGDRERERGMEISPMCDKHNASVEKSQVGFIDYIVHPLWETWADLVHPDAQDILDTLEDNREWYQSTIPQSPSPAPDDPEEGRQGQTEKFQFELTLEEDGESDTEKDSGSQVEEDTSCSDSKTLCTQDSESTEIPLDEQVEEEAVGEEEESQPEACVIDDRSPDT
Chain of Kappa-type opioid receptor (P41145 whole entry): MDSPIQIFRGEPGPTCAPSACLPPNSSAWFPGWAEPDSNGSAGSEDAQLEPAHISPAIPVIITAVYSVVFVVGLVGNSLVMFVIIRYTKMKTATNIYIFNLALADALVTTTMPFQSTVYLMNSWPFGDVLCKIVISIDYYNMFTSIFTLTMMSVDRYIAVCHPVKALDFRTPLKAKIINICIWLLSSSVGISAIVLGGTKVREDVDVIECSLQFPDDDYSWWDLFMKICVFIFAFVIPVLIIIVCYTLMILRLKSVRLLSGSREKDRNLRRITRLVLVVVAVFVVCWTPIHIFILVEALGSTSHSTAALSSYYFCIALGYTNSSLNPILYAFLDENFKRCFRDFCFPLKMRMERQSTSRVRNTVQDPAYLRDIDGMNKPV
Chain of Gamma-aminobutyric acid receptor subunit alpha-1 (P62813 whole entry): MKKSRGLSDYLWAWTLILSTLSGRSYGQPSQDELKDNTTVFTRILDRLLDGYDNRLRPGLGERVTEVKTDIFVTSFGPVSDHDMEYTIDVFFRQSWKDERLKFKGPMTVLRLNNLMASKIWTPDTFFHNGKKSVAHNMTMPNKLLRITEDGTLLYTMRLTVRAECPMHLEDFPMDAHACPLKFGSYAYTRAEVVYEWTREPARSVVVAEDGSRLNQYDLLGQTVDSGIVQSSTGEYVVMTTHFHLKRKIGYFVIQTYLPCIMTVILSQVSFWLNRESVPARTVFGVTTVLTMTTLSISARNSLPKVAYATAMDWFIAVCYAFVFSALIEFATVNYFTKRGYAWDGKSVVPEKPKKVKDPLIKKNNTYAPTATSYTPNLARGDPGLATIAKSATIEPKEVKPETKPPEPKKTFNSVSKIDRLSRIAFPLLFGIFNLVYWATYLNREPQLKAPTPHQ
Chain of Prostaglandin G/H synthase 1 (P23219 whole entry): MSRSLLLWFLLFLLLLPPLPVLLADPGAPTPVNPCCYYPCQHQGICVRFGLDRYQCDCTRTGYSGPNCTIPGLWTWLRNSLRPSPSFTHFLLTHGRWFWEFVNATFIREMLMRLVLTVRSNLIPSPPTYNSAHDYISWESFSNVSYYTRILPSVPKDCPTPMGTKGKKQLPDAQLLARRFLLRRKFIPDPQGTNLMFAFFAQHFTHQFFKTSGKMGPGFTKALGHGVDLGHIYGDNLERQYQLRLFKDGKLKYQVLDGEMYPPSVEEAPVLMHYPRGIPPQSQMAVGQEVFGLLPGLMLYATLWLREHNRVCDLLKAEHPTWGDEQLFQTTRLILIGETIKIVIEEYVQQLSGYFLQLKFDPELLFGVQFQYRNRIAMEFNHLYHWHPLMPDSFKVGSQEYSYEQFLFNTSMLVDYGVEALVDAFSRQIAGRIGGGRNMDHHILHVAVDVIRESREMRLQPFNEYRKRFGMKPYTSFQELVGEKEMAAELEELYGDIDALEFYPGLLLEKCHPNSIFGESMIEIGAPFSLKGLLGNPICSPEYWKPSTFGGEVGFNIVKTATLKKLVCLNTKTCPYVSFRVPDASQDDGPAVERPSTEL

For `CN(C)c1ccc(C(=C2C=CC(=[N+](C)C)C=C2)c2ccc(N(C)C)cc2)cc1` [GENTIAN VIOLET], the figures for the AC50 in assay [1] and in assay [2] were 2.97 µM and 20.8 µM, respectively.

Take HYDROXOCOBALAMIN: the AC50 in [3] is over 30 µM; at Histamine H2 receptor it was over 30 µM; in [4], over 30 µM; on Androgen receptor, over 10 µM; in assay [5], over 30 µM; in assay [6], over 30 µM. The AC50 in assay [7] and in assay [8] was over 30 µM throughout.
